The values that follow come from patent US10041933B2, “Modulators of the interaction of astrin and raptor, and uses thereof in cancer therapy” (ALBERT-LUDWIGS-UNIVERSITÄT FREIBURG, priority 2013, dated 2018).

The test system of data set [1] is oral squamous carcinoma cell lines. The conditions noted are these: cited from earlier work.
The test system of data set [2] is p70-S6K1-pT389 (mTORC1 substrate). The experiment in a line: Immunoblot of mTORC1 substrate p70-S6K1-pT389 after insulin/aa induction. It counts as cell-based. Conditions: astrin knockdown, insulin and aa 10 minutes; Rapamycin 100 nM, PP242 250 nM. Here is the method:
Experiments were performed in HeLa α Kyoto cells, and BT474, MDA-MB-231, MDA-MB-453, T-47D, MCF-7 breast cancer cell lines. […] Cultivation of breast cancer cell lines T-47D, BT474, MDA-MB-231 and MDA-MB-453 was done in the following media: RPMI (PAA, Pasching, Austria) supplemented with 100 nM insulin. MCF7 cells were cultivated in RPMI (PAA, Pasching, Austria). Insulin/aa induction was done as described (Sonntag et al., 2012). Prior to stress induction with 500 μM Arsenite or 2 mM H2O2, cells were starved for 16 h in DMEM without Glucose and fetal calf serum (PAA, Pasching, Austria) supplemented with 1.5% L-glutamine.
Stress granules were analysed after 30 min. stress induction. Apoptosis was analysed after 1-3 hours stress induction. Inhibitors were obtained from Calbiochem, Merck KGaA, Darmstadt, Germany and Sigma Aldrich, St. Louis, USA; dissolved in DMSO, and applied 30 min. prior to all induction regimens, at the following concentrations: Rapamycin (100 nM), PP242 (250 nM), Wortmannin (200 nM), Cycloheximide (2 μg/mL); HeLa cells were synchronized with Nocodazole (400 ng/mL) and subsequent mitotic shake off at G2/M, and released as described (Thein, K. H., Kleylein-Sohn, J., Nigg, E. A., and Gruneberg, U. (2007). Astrin is required for the maintenance of sister chromatid cohesion and centrosome integrity. J Cell Biol 178, 345-354). […]
(In general: In western blotting, separated proteins are transferred to a membrane and probed.)

With `CCCCCCCC/C=C\CCCCCCCCCCCCOP(=O)([O-])OCC[N+](C)(C)C` [Erufosine], in data set [1], the cytotoxicity entry is recorded as “dose-dependent cytotoxicity in all cell lines”.

For the compound `CC(C)n1nc(-c2cc3cc(O)ccc3[nH]2)c2c(N)ncnc21` [PP242], the “p70-S6K1-pT389 in astrin deficient cells” value in data set [2] is “potently inhibited”.
